The target in data set [1] is Jack bean urease enzyme (Canavalia ensiformis, UniProt P07374). The data set can be described thus: biochemical. The format is biochemical. The settings on record: pH 6.8. Here is the method: Urease is an enzyme which converts urea to ammonium carbonate and is used as a diagnostic tool to establish the presence of different pathogens in the urinary and gastrointestinal tract. The percentage activity values of urease enzyme of compounds 4a–d were measured at 50 µg/mL and 250 µg/mL (Table 5), whereas, for compounds 4e–g, the percentage activity values of urease enzyme were measured at 15, 40 and 80 µg/mL, respectively (Table 6).
Jack bean urease enzyme (25 µL) was added in buffer solution (55 µL) containing 100 mM urea to prepare the stock solution. This mixture was then incubated with 5 µL (0.5 mM concentration) of the newly synthesized compounds for 15 min at 30 °C in 96-well plates. Anti-urease activity was resolved by knowing the production of ammonia using the indophenol method. Concisely, in each well, phenol reagent (45 µL, 0.005% w/v sodium nitroprusside and 1% w/v phenol) was added in addition to the alkali reagent (70 µL, NaOH 0.5% w/v and 0.1% NaOCl). After 50 min, the increase in absorbance was measured at 630 nm using a micro plate reader. All reactions were carried out in triplicate to obtained 200 µL final volume. The Softmax pro software was used to obtain the results as change in absorbance per minute. All assays were carried out at a specific pH of 6.8. The following formula was used to calculate the % inhibition: 100 − (OD test well/OD control) × 100(3)
Thiourea was used as standard inhibitor of urease. The EZ-fit kinetic data base was used to determine IC50 values. In the case of colored compounds, sample blanks were also prepared. Absorbance of sample blanks was subtracted from the absorbance of samples to get the corrected absorbance of the samples. Corrected absorbance of sample was used to calculate % age inhibition.

Where [2] appears, read: IC50, urease, Table 6 series (4e–g).
Setting [3] is: IC50, urease, Table 5 series (4a–d).

The structures appear in SMILES notation. “And” between values parts separate entries of the source, which are not always exact repeats. Equal entries are not always repeated.

Sequence of Jack bean urease enzyme (P07374 whole entry, looked up): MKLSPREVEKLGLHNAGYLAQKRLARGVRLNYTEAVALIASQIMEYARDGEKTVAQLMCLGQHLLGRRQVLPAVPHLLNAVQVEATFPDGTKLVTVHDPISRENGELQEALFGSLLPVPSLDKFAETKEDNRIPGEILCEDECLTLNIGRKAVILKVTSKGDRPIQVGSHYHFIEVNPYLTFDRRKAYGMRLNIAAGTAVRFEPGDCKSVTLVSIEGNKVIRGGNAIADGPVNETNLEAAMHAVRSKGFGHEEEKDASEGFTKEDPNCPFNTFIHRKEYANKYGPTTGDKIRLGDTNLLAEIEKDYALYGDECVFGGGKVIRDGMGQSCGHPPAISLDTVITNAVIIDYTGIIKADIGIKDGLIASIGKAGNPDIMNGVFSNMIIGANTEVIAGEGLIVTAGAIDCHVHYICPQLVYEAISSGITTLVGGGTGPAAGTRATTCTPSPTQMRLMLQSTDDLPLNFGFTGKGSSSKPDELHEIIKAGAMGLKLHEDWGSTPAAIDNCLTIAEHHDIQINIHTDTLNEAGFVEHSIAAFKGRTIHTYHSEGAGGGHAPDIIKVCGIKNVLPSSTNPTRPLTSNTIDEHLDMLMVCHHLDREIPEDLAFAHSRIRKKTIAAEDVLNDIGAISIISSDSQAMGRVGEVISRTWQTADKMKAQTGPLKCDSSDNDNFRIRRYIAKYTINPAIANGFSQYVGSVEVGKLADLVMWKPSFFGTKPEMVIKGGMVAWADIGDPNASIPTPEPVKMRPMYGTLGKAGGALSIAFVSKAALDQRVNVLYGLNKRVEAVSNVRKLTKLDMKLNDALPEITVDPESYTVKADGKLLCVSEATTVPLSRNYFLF

For `CC(=O)NS(=O)(=O)c1ccc(-c2ccc(C)s2)s1` [Compound 4f], the melting point fell in the range of 167 to 168.4 °C. Moreover, the IC50 in data set [1] (setting [2]) was ~56.7 µM and 56.7 µM. The Percent urease inhibition in data set [1] (urease inhibition at 15 µg/mL) was determined as 42.44 ± 0.11%. In addition, the Percent urease inhibition in data set [1] (urease inhibition at 40 µg/mL) is listed as 92.12 ± 0.21%. The compound further came in with a Percent urease inhibition in data set [1] (urease inhibition at 80 µg/mL) of 94.66 ± 0.11%.

As for `CC(=O)NS(=O)(=O)c1ccc(-c2ccccc2)s1` [Compound 4a], the melting point was in the range of 158 to 160 °C. The IC50 in data set [1] (setting [3]) is ~136 µM and 136 µM. This compound also came in with a Percent urease inhibition in data set [1] (urease inhibition at 50 µg/mL) of 67.56 ± 0.007%. The compound further had a Percent urease inhibition in data set [1] (urease inhibition at 250 µg/mL) of 89 ± 0.01%.

In turn, `CC(=O)NS(=O)(=O)c1ccc(-c2ccc(C)cc2)s1` [Compound 4d] returned a melting point of 161 to 163 °C. This compound gave an IC50 in data set [1] (setting [3]) of 738 µM. The same compound gave a Percent urease inhibition in data set [1] (urease inhibition at 50 µg/mL) of 13.34 ± 0.007%. This compound had a Percent urease inhibition in data set [1] (urease inhibition at 250 µg/mL) of 54 ± 0.004%.

Turning to `NC(N)=S` [Standard, Thiourea, reference compound], the Percent urease inhibition in data set [1] (urease inhibition at 15 µg/mL) came out at 47.1 ± 0.31%; in data set [1] (urease inhibition at 40 µg/mL), 65 ± 0.01%; in data set [1] (urease inhibition at 50 µg/mL), 60 ± 0.032%; in data set [1] (urease inhibition at 250 µg/mL), 95 ± 0.09%. The IC50 in data set [1] (urease, Table 5 series (4a–d)) is 43 ± 0.38 µg/mL; in data set [1] (urease, Table 6 series (4e–g)), 23.3 µg/mL.

Take `CC(=O)NS(=O)(=O)c1ccc(-c2cc(C)cc(C)c2)s1` [Compound 4e]: the melting point lay within 148 to 149 °C. In data set [1] (setting [2]), the IC50 is 57.9 µM. Further, the Percent urease inhibition in data set [1] (urease inhibition at 15 µg/mL) came out at 44.59 ± 0.14%. The Percent urease inhibition in data set [1] (urease inhibition at 40 µg/mL) is 91.21 ± 0.81%. In data set [1] (urease inhibition at 80 µg/mL), this compound yielded a Percent urease inhibition of 92.88 ± 0.14%.

For the compound `CC(=O)NS(=O)(=O)c1ccc(-c2cc(C(F)(F)F)cc(C(F)(F)F)c2)s1` [Compound 4b, N-((5-(3,5-Bis(trifluoromethyl)phenyl)thiophen-2-yl)sulfonyl)acetamide], the melting point was 168 °C. The IC50 in data set [1] (setting [3]) was ~197 µM and 197 µM. In data set [1] (urease inhibition at 50 µg/mL), the Percent urease inhibition is on record as 29.98 ± 0.034%. Besides, in data set [1] (urease inhibition at 250 µg/mL), the Percent urease inhibition was found to be 56 ± 0.006%.

Compound `CC(=O)NS(=O)(=O)c1ccc(-c2ccc(Cl)c(Cl)c2)s1` [Compound 4c] came in with a melting point of 148 to 150 °C. Also, the IC50 in data set [1] (setting [3]) is ~121 µM and 121 µM. The same compound displayed a Percent urease inhibition in data set [1] (urease inhibition at 50 µg/mL) of 54.4 ± 0.002%. This compound gave a Percent urease inhibition in data set [1] (urease inhibition at 250 µg/mL) of 78 ± 0.003%.

As to `CC(=O)NS(=O)(=O)c1ccc(-c2ccc(Cl)cc2)s1` [Compound 4g], the melting point was in the range of 167 to 170 °C. The compound further gave an IC50 in data set [1] (setting [2]) of 73.8 µM. The compound also gave a Percent urease inhibition in data set [1] (urease inhibition at 15 µg/mL) of 46.23 ± 0.11%. Further, in data set [1] (urease inhibition at 40 µg/mL), the Percent urease inhibition is on record as 90.97 ± 0.18%. In data set [1] (urease inhibition at 80 µg/mL), this compound showed a Percent urease inhibition of 68 ± 0.02%.

(Values after publication PMC6332040, “Synthesis, Density Functional Theory (DFT), Urease Inhibition and Antimicrobial Activities of 5-Aryl Thiophenes Bearing Sulphonylacetamide Moieties” (Molecules, 2015).)
